# System: MDCK-II
# Assay: Antimigratory activity against MDCK2 cells assessed as inhibition of HGF-induced cell scattering at 1 uM pretreated for 18 hrs followed by HGF addition measured after 20 to 24 hrs by crystal violet staining-based assay relative to control
# Assay type: functional
# Conditions: Canis lupus familiaris
row,SMILES,inhibition at 1 µM
1,O=C(Nc1ccc2ccccc2n1)c1cncnc1,-55%
2,O=C(Nc1ccc(-c2ccccc2)cn1)c1cccc(C(F)(F)F)c1,-2%
3,Cc1cc(C)nc(NC(=O)c2cccc([N+](=O)[O-])c2)c1,52.5%
4,O=C(Nc1ccc(-c2ccccc2)cn1)c1cnco1,-10%
5,Cc1nc(NC(=O)c2cncnc2)cnc1Br,-42%
6,Cc1nc(NC(=O)c2cnc3cccnc3c2)ccc1I,33%
7,O=C(Nc1ccc(-c2ccccc2)cn1)c1cnc2cccnc2c1,181%
8,O=C(Nc1ccc(-c2ccccc2)cn1)c1cccc([N+](=O)[O-])c1,29%
9,Cc1nc(NC(=O)c2cncc([N+](=O)[O-])c2)cnc1Br,-26%
10,Cc1nc(NC(=O)c2cnco2)ccc1I,32%
11,CCOc1ccc(C(=O)Nc2cccc(C)n2)cc1[N+](=O)[O-],31.7%
12,O=C(Nc1ncc(Br)cc1Br)c1cccc([N+](=O)[O-])c1,42.4%
13,Cc1nc(NC(=O)c2ccc(N3CCCCC3)c([N+](=O)[O-])c2)ccc1I,29.4%
14,Cc1nc(NC(=O)c2nccs2)ccc1I,-20%
15,O=C(Nc1ccc2ccccc2n1)c1cnc2cccnc2c1,-69%
16,Cc1nc(NC(=O)c2nccs2)ccc1Cl,-28%
17,Cc1nc(NC(=O)c2nccs2)cnc1Br,-36%
18,O=C(Nc1ccccn1)c1cccc([N+](=O)[O-])c1,45.3%
19,Cc1nc(NC(=O)c2cncc([N+](=O)[O-])c2)ccc1Cl,-20%
20,O=C(Nc1ncc[nH]1)c1cccc([N+](=O)[O-])c1,-77%
21,Cc1nc(NC(=O)c2cnco2)ccc1Cl,-35%
22,O=C(Nc1ncc[nH]1)c1cccc(C(F)(F)F)c1,-72%
23,Cc1nc(NC(=O)c2cccc(C(F)(F)F)c2)ccc1Cl,-13%
24,O=C(Nc1ccc2ccccc2n1)c1nccs1,-51%

row,SMILES,inhibition at 1 µM
1,Cc1cc(NC(=O)c2cccc([N+](=O)[O-])c2)ccc1I,53.1%
2,O=C(Nc1ccc2ccccc2n1)c1cncc([N+](=O)[O-])c1,-63%
3,O=C(Nc1ccc(-c2ccccc2)cn1)c1cncc([N+](=O)[O-])c1,-32%
4,Cc1nc(NC(=O)c2cccc(C(F)(F)F)c2)ccc1I,72%
5,O=C(Nc1ccc(-c2ccccc2)cn1)c1nccs1,-13%
6,Cc1nc(NC(=O)c2cncc([N+](=O)[O-])c2)ccc1I,21%
7,Cc1cc(NC(=O)c2cccc([N+](=O)[O-])c2)ccc1O,34.6%
8,O=C(Nc1ccc2ccccc2n1)c1cccc([N+](=O)[O-])c1,-59%
9,Cc1nc(NC(=O)c2cccc(C(F)(F)F)c2)cnc1Br,-6%
10,Cc1cc(NC(=O)c2ccc(C)c([N+](=O)[O-])c2)c(C)cc1I,46.9%
11,CCOc1ccc(C(=O)Nc2ccc(I)cn2)cc1[N+](=O)[O-],69.9%
12,Cc1nc(NC(=O)c2cc([N+](=O)[O-])ccc2N2CCOCC2)ccc1I,31.7%
13,Cc1nc(NC(=O)c2cncnc2)ccc1Cl,-18%
14,Cc1nc(NC(=O)c2cnc3cccnc3c2)cnc1Br,-25%
15,Cc1nc(NC(=O)c2cccc([N+](=O)[O-])c2)ccc1Br,88.6%
16,Cc1nc(NC(=O)c2cccc([N+](=O)[O-])c2)cnc1Br,-33%
17,Cc1nc(NC(=O)c2cccc([N+](=O)[O-])c2)ccc1Cl,-5%
18,O=C(Nc1cscn1)c1cccc(C(F)(F)F)c1,-73%
19,Cc1cc(NC(=O)c2cccc([N+](=O)[O-])c2C)c(C)cc1I,36.1%
20,O=C(Nc1ccc2ccccc2n1)c1cccc(C(F)(F)F)c1,-59%
21,O=C(Nc1ncc[nH]1)c1cnco1,-50%
22,Cc1nc(NC(=O)c2cnco2)cnc1Br,-21%
23,O=C(Nc1cscn1)c1cnco1,-54%
24,Cc1nc(NC(=O)c2ccc(N3CCCC3)c([N+](=O)[O-])c2)ccc1I,44%

# Reference: ChEMBL document CHEMBL4043145, “Pyridine-pyrimidine amides that prevent HGF-induced epithelial scattering by two distinct mechanisms” (Bioorg Med Chem Lett, 2017)
